Holding throughout (format): in vivo
One assay concerns Brassica napus. Description: Greenhouse test of glyphosate/adjuvant formulations with Brassica napus.
For the next assay, the system named is Elymus repens. Description: Greenhouse test of glyphosate/adjuvant formulations with Elymus repens.
For the next assay, the system named is Lolium rigidum. Description: Greenhouse test of glyphosate/adjuvant formulations with Lolium rigidum.
Where [1] appears, read: Example 2, Table 4, glyphosate 0.75 kg a.e./ha, glyphosate/adjuvant 2:1, 4 weeks after spraying.

Results on five compounds are retold here after patent US6747164B2, “Use of amine compounds with improved biodegradability as adjuvants for pesticides and fertilizers” (priority 2000, dated 2004).

Values joined by “and” are separate entries in the source; they are usually repeats but may differ in a detail not shown here. Identical values can stand only once.

Take `CCCCC(CC)COC1OC(CO)C(O)C(O)C1O` (centres unmarked) [2-ethylhexyl glucoside, reference compound]: the Effect in the assay on Brassica napus (setting [1]) worked out at 63%.

On to `CCCCCCOC1OC(CO)C(O)C(O)C1O` (centres unmarked) [Hexyl glucoside, reference compound], for which the Effect with Brassica napus (setting [1]) amounted to 57%.

Turning to “Cocoamide of N,N-bishydroxyethyl-1,3-propylenediamine”, the Effect in the assay with Elymus repens (Example 2, Table 3, glyphosate 0.15 kg a.e./ha, glyphosate/adjuvant 2:1, 5 weeks after spraying, 100% = totally dead plant) is on record as 13%; in the assay with Elymus repens (Example 2, Table 3, glyphosate 0.15 kg a.e./ha, glyphosate/adjuvant 5:1, 5 weeks after spraying) it was 8%; with Elymus repens (Example 2, Table 3, glyphosate 0.25 kg a.e./ha, glyphosate/adjuvant 2:1, 5 weeks after spraying), 75%; with Elymus repens (Example 2, Table 3, glyphosate 0.25 kg a.e./ha, glyphosate/adjuvant 5:1, 5 weeks after spraying), 65%; with Elymus repens (Example 2, Table 3, glyphosate 0.75 kg a.e./ha, glyphosate/adjuvant 2:1, 5 weeks after spraying), 97%; in the assay on Elymus repens (Example 2, Table 3, glyphosate 0.75 kg a.e./ha, glyphosate/adjuvant 5:1, 5 weeks after spraying), 95%. Further, the Effect with Elymus repens (Example 3, Table 6, glyphosate 0.15 kg a.e./ha, glyphosate/adjuvant 2:1, 7 weeks after spraying) is reported as 33%; in the assay on Elymus repens (Example 3, Table 6, glyphosate 0.25 kg a.e./ha, glyphosate/adjuvant 2:1, 7 weeks after spraying) it was 47%; in the assay with Elymus repens (Example 3, Table 6, glyphosate 0.75 kg a.e./ha, glyphosate/adjuvant 2:1, 7 weeks after spraying), 100%; with Brassica napus (Example 2, Table 4, glyphosate 0.15 kg a.e./ha, glyphosate/adjuvant 2:1, 4 weeks after spraying), 40%; in the assay with Brassica napus (Example 2, Table 4, glyphosate 0.15 kg a.e./ha, glyphosate/adjuvant 5:1, 4 weeks after spraying), 8%; in the assay with Brassica napus (Example 2, Table 4, glyphosate 0.25 kg a.e./ha, glyphosate/adjuvant 2:1, 4 weeks after spraying) it was 70%. For the same compound, the Effect is given as 73% with Brassica napus (Example 2, Table 4, glyphosate 0.25 kg a.e./ha, glyphosate/adjuvant 5:1, 4 weeks after spraying); 98% in the assay with Brassica napus (setting [1]); 87% with Brassica napus (Example 2, Table 4, glyphosate 0.75 kg a.e./ha, glyphosate/adjuvant 5:1, 4 weeks after spraying); 45% in the assay on Brassica napus (Example 3, Table 7, glyphosate 0.15 kg a.e./ha, glyphosate/adjuvant 2:1, 4 weeks after spraying); 52% in the assay on Brassica napus (Example 3, Table 7, glyphosate 0.25 kg a.e./ha, glyphosate/adjuvant 2:1, 4 weeks after spraying); 90% with Brassica napus (Example 3, Table 7, glyphosate 0.75 kg a.e./ha, glyphosate/adjuvant 2:1, 4 weeks after spraying). Besides, the Effect is listed as 57% in the assay on Lolium rigidum (Example 2, Table 5, glyphosate 0.08 kg a.e./ha, glyphosate/adjuvant 2:1, 4 weeks after spraying); 23% in the assay on Lolium rigidum (Example 2, Table 5, glyphosate 0.08 kg a.e./ha, glyphosate/adjuvant 5:1, 4 weeks after spraying); 78% in the assay with Lolium rigidum (Example 2, Table 5, glyphosate 0.15 kg a.e./ha, glyphosate/adjuvant 2:1, 4 weeks after spraying); 72% in the assay with Lolium rigidum (Example 2, Table 5, glyphosate 0.15 kg a.e./ha, glyphosate/adjuvant 5:1, 4 weeks after spraying); 97% with Lolium rigidum (Example 2, Table 5, glyphosate 0.25 kg a.e./ha, glyphosate/adjuvant 2:1, 4 weeks after spraying); 88% in the assay with Lolium rigidum (Example 2, Table 5, glyphosate 0.25 kg a.e./ha, glyphosate/adjuvant 5:1, 4 weeks after spraying). For the same compound, the Effect with Lolium rigidum (Example 3, Table 8, glyphosate 0.08 kg a.e./ha, glyphosate/adjuvant 2:1, 4 weeks after spraying) was 40%; in the assay with Lolium rigidum (Example 3, Table 8, glyphosate 0.15 kg a.e./ha, glyphosate/adjuvant 2:1, 4 weeks after spraying) it was 58%; with Lolium rigidum (Example 3, Table 8, glyphosate 0.25 kg a.e./ha, glyphosate/adjuvant 2:1, 4 weeks after spraying) it was 93%.

As for “Monoester between polyethyleneglycol (2.5 EO)-monococo ether monocarboxymethyl ether and triethanolamine”, the Effect in the assay with Lolium rigidum (in vivo) is 48% and 68% and 88%.

In the case of “Monoester between polyethyleneglycol (4.5 EO)-monococo ether monocarboxymethyl ether and triethanolamine”, the Effect with Brassica napus (in vivo) is 58% and 75% and 92%; with Lolium rigidum (in vivo), 52% and 72% and 96%.
